Values quoted from earlier work as cited in patent publication US8859001B2, “Fenoldopam formulations and pro-drug derivatives” (priority 2007, dated 2014).
Counter-ions that a name gives are not always drawn. Like-named read-outs stand apart in the source and are kept apart here.

What was measured:
[1] = tested on: human lymphoma and leukemia lines (Jurkat, HuT-78, K-562, Daudi, Raji); details: for effectiveness in killing lymphoma and leukemia: selective dopamine D1/5 receptor agonists tested
[2] = IV infusion
patients = details: clinical use
[3] = tested on: TCR-activated human normal peripheral T-cells
[4] = tested on: resting (i.e., not TCR-activated) human normal peripheral T-cells; details: in vitro
mice = details: mouse, in vivo, po

## Cl.NC[C@@H]1O[C@H](c2ccccc2)Cc2c1ccc(O)c2O (racemic) [A 68930 hydrochloride, cis-(±)-1-(aminomethyl)-3,4-dihydro-3-phenyl-1H-2-benzopyran-5,6-diol hydrochloride]
[1]
  effectiveness in killing lymphoma and leukemia: effective in killing lymphoma and leukemia

## Oc1ccc(C2CNCCc3c2cc(O)c(O)c3Cl)cc1 (racemic) [Fenoldopam mesylate, 6-chloro-2,3,4,5-tetrahydro-1-(4-hydroxyphenyl)-1H-3-benzazepine-7,8-diol, methanesulfonate]
[2]
  half life T1/2: ~5 min
5HT1 receptors
  affinity: no significant affinity
[1]
  time to start of measurable cell death after exposure: 1 to 60 min
[1]; 1 mM-0.01 mM fenoldopam mesylate, five lymphoma/leukemia lines
  death of cancer cells on in vitro exposure: death of all, or the vast majority of, these cancer cells
[1]; cancer cells, after 72 hr, concentrations within 0.1 mM-0.1 nM
  death of cells (number of live and dead cells): over 98%
patients
  patients reporting the major side effects (headache, flushing and nausea): ≤ 10%
β adrenoceptors
  affinity: no significant affinity
α1 adrenoceptors
  affinity: no significant affinity
[3]; in vitro
  killing of TCR-activated T-cells: kills potently a substantial proportion
[3]; normal TCR-activated T-cells, after 72 hr, concentrations within 0.1 mM-0.1 nM
  death of cells (number of live and dead cells): over 98%
5HT2 receptors
  affinity: no significant affinity
Muscarinic receptors
  affinity: no significant affinity
HCl/KCl buffer pH 1.5
  solubility: 9.1 mg/mL
Buffer pH 6.8
  solubility: 0.13 mg/mL
ethanol
  solubility in ethanol: sparingly soluble
methanol
  solubility in methanol: sparingly soluble
pH 7.5
  solubility: 0.06 mg/mL
Propylene glycol
  solubility in propylene glycol: soluble
water
  solubility in water: sparingly soluble
α2-adrenoceptors
  affinity: moderate affinity
D2-like receptors
  affinity: no significant affinity
[4]
  effect on resting T-cells: hardly affecting

## Br.Oc1cc2c(cc1O)C(c1ccccc1)CNCC2 (racemic) [SKF 38393 hydrobromide, (±)-1-phenyl-2,3,4,5-tetrahydro-(1H)-3-benzazepine-7,8-diol hydrobromide]
[1]
  effectiveness in killing lymphoma and leukemia: effective in killing lymphoma and leukemia

## Cl.NC[C@@H]1O[C@H](C23CC4CC(CC(C4)C2)C3)Cc2c1ccc(O)c2O [A 77636 hydrochloride, (1R-cis)-1-(aminomethyl)-3,4-dihydro-3-tricyclo[3.3.1.13,7]dec-1-yl-[1H]-2-benzopyran-5,6-diol hydrochloride]
[1]; compared among dopamine receptor agonists
  relative effectiveness as cancer cell killer: the most effective cancer killers
[1]
  effectiveness in killing lymphoma and leukemia: effective in killing lymphoma and leukemia
[3]; compared among highly selective D1R agonists
  relative effectiveness as killer of TCR-activated T-cells: the most effective killers of TCR-activated T-cells

## CCOC(=O)C(C)O (stereo not shown) [Ethyl lactate, 2-hydroxypropanoic acid ethyl ester]
mice
  LD50: higher than 5 g/kg
